Source: patent US12630547B2, “RAS protein degraders, pharmaceutical compositions thereof, and their therapeutic applications” (BioTheryX, Inc., priority 2019, dated 2026)

Columns and labels:
Type in all cases: cell-based
MOLM-13 cells = assay: Cell viability assay (CELLTITER-GLO), MOLM-13 cells; settings: Table 2, compound at 10 μM, 3 days; for viability at 10 µM: Homo sapiens, MOLM-13, 72 h, read-out: Effect on MOLM-13 cell viability (% DMSO)
How it was run: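 MV-4-11 and MOLM-13 cells in RPMI 1640/10% FBS were seeded at 4,000 cells/well and exposed to compound (10 μM or 1 μM) or DMSO for 3 days at 37 °C, 5% CO2. CellTiter-Glo luminescence gave viability as % DMSO, binned into ranges A (<10%) through D (≥50%).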

H358 cells = assay: Cell viability assay (CELLTITER-GLO), H358 cells; settings: Table 4; 3 days
How it was run: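 H358 cells (RPMI 1640, 10% FBS), 4,000 per well, exposed to compound for 3 days at 37 °C, 5% CO2; viability by CellTiter-Glo luminescence. Single-dose viability as % DMSO at 10 or 1 μM, binned A (<10%) to D (≥50%); IC50 binned A (≤1 μM) to D (>10 μM).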

H23 cells = assay: Cell viability assay (CELLTITER-GLO), H23 cells; settings: Table 4; 3 days
How it was run: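 H23 cells in RPMI 1640 with 10% FBS, 4,000 cells/well, exposed to compound or DMSO for 3 days at 37° C, 5% CO2. Viability read by CellTiter-Glo luminescence after 10 min. IC50 reported in potency bins.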

Row | Compound | viability at 10 µM (MOLM-13 cells) [%] | Inhibition of H358 cells, IC50 (class) (H358 cells) | Inhibition of H23 cells, IC50 (class) (H23 cells) | Effect on MOLM-13 cell viability (% DMSO) (MOLM-13 cells)
1 | C=C(Cl)C(=O)N1CCN(c2ncnc3c(F)c(-c4c(F)cccc4OCCCCCCCCCCCN4CCC(c5cc(F)cc6c5CN(C5CCC(=O)NC5=O)C6=O)CC4)c(Cl)cc23)CC1 (stereo not drawn) [Compound 114, 3-(4-(1-(11-(2-(6-Chloro-4-(4-(2-chloroacryloyl)piperazin-1-yl)-8-fluoroquinazolin-7-yl)-3-fluorophenoxy)undecyl)piperidin-4-yl)-6-fluoro-1-oxoisoindolin-2-yl)piperidine-2,6-dione] | < 10 | B′ | B′ | 
2 | C=C(Cl)C(=O)N1CCN(c2nc(OCCN(C)C)nc3c(F)c(-c4c(F)cccc4OCCCCCCCN4CCC(c5cc(F)cc6c5CN(C5CCC(=O)NC5=O)C6=O)CC4)c(Cl)cc23)CC1 (stereo not drawn) [Compound 115, 3-(4-(1-(7-(2-(6-Chloro-4-(4-(2-chloroacryloyl)piperazin-1-yl)-2-(2-(dimethylamino)-ethoxy)-8-fluoroquinazolin-7-yl)-3-fluorophenoxy)heptyl)piperidin-4-yl)-6-fluoro-1-oxoisoindolin-2-yl)piperidine-2,6-dione] | < 10 | B′ | A′ | 
3 | C=C(Cl)C(=O)N1CCN(c2ncnc3c(F)c(-c4c(F)cccc4OCCC4CCC(CCN5CCC(c6cc(F)cc7c6CN(C6CCC(=O)NC6=O)C7=O)CC5)CC4)c(Cl)cc23)CC1 (stereo not drawn) [Compound 116, 3-(4-(1-(2-(4-(2-(2-(6-Chloro-4-(4-(2-chloroacryloyl)piperazin-1-yl)-8-fluoroquinazolin-7-yl)-3-fluorophenoxy)ethyl)cyclohexyl)ethyl)piperidin-4-yl)-6-fluoro-1-oxoisoindolin-2-yl)piperidine-2,6-dione] |  | A′ | A′ | A (“A” represents a % viability value of less than 10%)
4 | C=C(Cl)C(=O)N1CCN(c2ncnc3c(F)c(-c4c(F)cccc4OC[C@H]4CC[C@H](CN5CCC(c6cc(F)cc7c6CN(C6CCC(=O)NC6=O)C7=O)CC5)CC4)c(Cl)cc23)CC1 (stereo partly drawn) [Compound 117, 3-(4-(1-(((1r,4r)-4-((2-(6-Chloro-4-(4-(2-chloroacryloyl)piperazin-1-yl)-8-fluoro-quinazolin-7-yl)-3-fluorophenoxy)methyl)cyclohexyl)methyl)piperidin-4-yl)-6-fluoro-1-oxoisoindolin-2-yl)piperidine-2,6-dione] | < 10 | A′ | A′ | 
5 | C=C(Cl)C(=O)N1CCN(c2ncnc3c(F)c(-c4c(F)cccc4OCCC4CCC(CN5CCC(c6cc(F)cc7c6CN(C6CCC(=O)NC6=O)C7=O)CC5)CC4)c(Cl)cc23)CC1 (stereo not drawn) [Compound 118, 3-(4-(1-((4-(2-(2-(6-Chloro-4-(4-(2-chloroacryloyl)piperazin-1-yl)-8-fluoroquinazolin-7-yl)-3-fluorophenoxy)ethyl)cyclohexyl)methyl)piperidin-4-yl)-6-fluoro-1-oxoisoindolin-2-yl)piperidine-2,6-dione] | < 10 | A′ | A′ | 
6 | C=C(Cl)C(=O)N1CCN(c2ncnc3c(F)c(-c4c(F)cccc4OCCCCCCCN4CCCC(c5cc6c(cc5F)C(=O)N(C5CCC(=O)NC5=O)C6)C4)c(Cl)cc23)CC1 (stereo not drawn) [Compound 119, 3-(5-(1-(7-(2-(6-Chloro-4-(4-(2-chloroacryloyl)piperazin-1-yl)-8-fluoroquinazolin-7-yl)-3-fluorophenoxy)heptyl)piperidin-3-yl)-6-fluoro-1-oxoisoindolin-2-yl)piperidine-2,6-dione] | < 10 | B′ | A′ | 
7 | C=C(Cl)C(=O)N1CCN(c2ncnc3c(F)c(-c4c(F)cccc4OCCN4CCC(CCN5CCC(c6cc(F)cc7c6CN(C6CCC(=O)NC6=O)C7=O)CC5)CC4)c(Cl)cc23)CC1 (stereo not drawn) [Compound 120, 3-(4-(1-(2-(1-(2-(2-(6-Chloro-4-(4-(2-chloroacryloyl)piperazin-1-yl)-8-fluoroquinazolin-7-yl)-3-fluorophenoxy)ethyl)piperidin-4-yl)ethyl)piperidin-4-yl)-6-fluoro-1-oxoisoindolin-2-yl)piperidine-2,6-dione] | < 10 | B′ | B′ | 
8 | C=C(Cl)C(=O)N1CCN(c2ncnc3c(F)c(-c4c(F)cccc4OCCCN4CCC(c5cc(F)cc6c5CN(C5CCC(=O)NC5=O)C6=O)CC4)c(Cl)cc23)CC1 (stereo not drawn) [Compound 121, 3-(4-(1-(3-(2-(6-Chloro-4-(4-(2-chloroacryloyl)piperazin-1-yl)-8-fluoroquinazolin-7-yl)-3-fluorophenoxy)propyl)piperidin-4-yl)-6-fluoro-1-oxoisoindolin-2-yl)piperidine-2,6-dione] | < 10 | B′ | B′ | 
9 | C=C(Cl)C(=O)N1CCN(c2nc(=O)n(-c3c(C)ccnc3C(C)C)c3nc(-c4c(F)cccc4OCCCCCCCN4CCC(c5cc(F)cc6c5CN(C5CCC(=O)NC5=O)C6=O)CC4)c(F)cc23)[C@@H](C)C1 (stereo partly drawn) [Compound 122, 3-(4-(1-(7-(2-(4-((S)-4-(2-Chloroacryloyl)-2-methylpiperazin-1-yl)-6-fluoro-1-(2-isopropyl-4-methylpyridin-3-yl)-2-oxo-1,2-dihydropyrido[2,3-d]pyrimidin-7-yl)-3-fluorophenoxy)heptyl)piperidin-4-yl)-6-fluoro-1-oxoisoindolin-2-yl)piperidine-2,6-dione] | < 10 | A′ | A′ | 
10 | C=C(Cl)C(=O)N1CCN(c2ncnc3c(F)c(-c4c(F)cccc4OCCCCCCCN4CCC(c5cc6c(cc5F)C(=O)N(C5CCC(=O)NC5=O)C6)CC4)c(Cl)cc23)C[C@H]1CC#N (stereo partly drawn) [Compound 123, 2-((2R)-4-(6-Chloro-7-(2-((7-(4-(2-(2,6-dioxopiperidin-3-yl)-6-fluoro-1-oxoisoindolin-5-yl)piperidin-1-yl)heptyl)oxy)-6-fluorophenyl)-8-fluoroquinazolin-4-yl)-1-(2-chloroacryloyl)-piperazin-2-yl)acetonitrile] | < 10 | A′ | A′ | 
11 | C=CC(=O)N1CCN(c2nc(=O)n(-c3c(C)ccnc3C(C)C)c3nc(-c4c(F)cccc4OCCCCCCCN4CCC(c5cc(F)cc6c5CN(C5CCC(=O)NC5=O)C6=O)CC4)c(F)cc23)[C@@H](C)C1 (stereo partly drawn) [Compound 124, 3-(4-(1-(7-(2-(4-((S)-4-Acryloyl-2-methylpiperazin-1-yl)-6-fluoro-1-(2-isopropyl-4-methylpyridin-3-yl)-2-oxo-1,2-dihydropyrido[2,3-d]pyrimidin-7-yl)-3-fluorophenoxy)heptyl)-piperidin-4-yl)-6-fluoro-1-oxoisoindolin-2-yl)piperidine-2,6-dione] | < 10 | A′ | B′ | 
12 | C=C(Cl)C(=O)N1C[C@@H]2C(=O)N(CCCCCCCN3CCC(c4cc(F)cc5c4CN(C4CCC(=O)NC4=O)C5=O)CC3)c3cnc4c(F)c(-c5c(O)cccc5F)c(Cl)cc4c3N2C[C@H]1C (stereo partly drawn) [Compound 125, 3-(4-(1-(7-((2R,4aR)-11-Chloro-3-(2-chloroacryloyl)-9-fluoro-10-(2-fluoro-6-hydroxyphenyl)-2-methyl-5-oxo-1,2,3,4,4a,5-hexahydro-6H-pyrazino[1′,2′:4,5]pyrazino[2,3-c]quinolin-6-yl)heptyl)piperidin-4-yl)-6-fluoro-1-oxoisoindolin-2-yl)piperidine-2,6-dione] | < 10 | B′ | B′ | 
13 | C=C(Cl)C(=O)N1CCN(c2nc(=O)n(-c3ccc(CCCCCCCN4CCC(c5cc(F)cc6c5CN(C5CCC(=O)NC5=O)C6=O)CC4)cc3C(C)C)c3nc(-c4c(O)cccc4F)c(F)cc23)[C@@H](C)C1 (stereo partly drawn) [Compound 126, 3-(4-(1-(7-(4-(4-((S)-4-(2-Chloroacryloyl)-2-methylpiperazin-1-yl)-6-fluoro-7-(2-fluoro-6-hydroxyphenyl)-2-oxopyrido[2,3-d]pyrimidin-1(2H)-yl)-3-isopropylphenyl)heptyl)piperidin-4-yl)-6-fluoro-1-oxoisoindolin-2-yl)piperidine-2,6-dione] | < 10 | B′ | B′ | 
